The record followed here is patent US6686350B1, “Cell adhesion inhibitors” (Biogen, Inc., priority 1996, dated 2004).

This test concerns the target T1, VLA-4 (Homo sapiens, UniProt P05556+P13612).
T1 construct: endogenous in cells; host or cells: Jurkat cells
Nature of the test: VLA-4 direct binding assay (VCAM-IgG alkaline phosphatase conjugate binding to Jurkat cells). Conditions: Table 1, Structure-Activity; assay and unit inferred; read-out: Act. The text has this:
A direct binding assay may also be employed to quantitate the inhibitory activity of the compounds of this invention. (“DBA”) In direct binding assays, for example, a VCAM-IgG fusion protein containing the first two immunoglobulin domains of VCAM (D1D2) attached above the hinge region of an IgG1 molecule (“VCAM 2D-IgG”), is conjugated to a marker enzyme, such as alkaline phosphatase (“AP”). The synthesis of this VCAM-IgG fusion is described in PCT publication WO 90/13300, the disclosure of which is herein incorporated by reference. The conjugation of that fusion to a marker enzyme can be achieved by cross-linking methods well-known in the art.
The VCAM-IgG enzyme conjugate is then placed in the wells of a multi-well filtration plate, such as that contained in the Millipore Multiscreen Assay System (Millipore Corp., Bedford, Mass.). Varying concentrations of the test inhibitory compound are then added to the wells followed by addition of VLA-4-expressing cells. The cells, compound and VCAM-IgG enzyme conjugate are mixed together and allowed to incubate at room temperature.
Following incubation, the wells are vacuum drained, leaving behind the cells and any bound VCAM. Quantitation of bound VCAM is determined by adding an appropriate calorimetric substrate for the enzyme conjugated to VCAM-IgG and determining the amount of reaction product. Decreased reaction product indicates increased binding inhibitory activity. The protocol is described more specifically below:
1. Block a 96 well Millipore Multiscreen Assay System filtration plate^1 with 200:l/well of blocking buffer (1×Phosphate Buffered Saline, 0.1%Tween 20, 1%BSA) for at least 1 hour at room temperature.
2. Drain the plate with the vacuum manifold, and wash with 200 μl/well of assay buffer (Tris Buffered Saline, 0.1% BSA, 2 mM glucose, 10 mM HEPES, pH 7.5) draining the plate in between. Repeat twice. Then blot the plate bottom on paper to remove excess buffer.
3. Prepare a 4 μg/ml VCAMIg-AP solution (Alkaline phosphatase coupled to VCAMIg) in assay buffer and filter with a 0.2:low protein binding syringe filter (Gelman Sciences #4454). From this stock, prepare a 0.4 μg/ml working solution of VCAMIg-AP in assay buffer. Add 25:l of 0.4 μg/ml VCAMIg-AP to every well.
5. Prepare dilutions of compounds to be tested in assay buffer. Concentrations should be 4× the desired final concentration and run in triplicate. Add 25 μl of the compound dilutions to designated wells.
7. Jurkat cells are centrifuged to remove cell culture media and washed once in assay buffer. Resuspend the washed Jurkat cells to a concentration of 8×10^6/ml in assay buffer containing 2 mM MnCl2. Pipeting the mixture up and down to ensure a uniform cell suspension. Add 50:l of cell suspension to each well except the NSB wells.
8. Gently tap the sides of the plate to mix well contents. Incubate the plate for 60 minutes at room temperature (RT).
9. Place the plate on the vacuum manifold to drain the well contents. Wash twice with 100 μl/well of wash buffer (assay buffer containing 1 mM MnCl2). Drain the plate and blot on paper towels.
10. Add 10 mg/ml of 4-Nitro phenyl phosphate to Substrate buffer (0.1M glycine, 1 mM ZnCl2, 1 mM MgCl2, pH 10.5). Add 100 μl/well and incubate for exactly 30 minutes at RT.
11. To stop the reaction, add 100 μl/well of 3N NaOH.
12. Read the 96-well plate in a Molecular Devices ELISA platereader at 405 nm. Analyze data with SoftMax software.

T1 sequence (P13612 34-1032): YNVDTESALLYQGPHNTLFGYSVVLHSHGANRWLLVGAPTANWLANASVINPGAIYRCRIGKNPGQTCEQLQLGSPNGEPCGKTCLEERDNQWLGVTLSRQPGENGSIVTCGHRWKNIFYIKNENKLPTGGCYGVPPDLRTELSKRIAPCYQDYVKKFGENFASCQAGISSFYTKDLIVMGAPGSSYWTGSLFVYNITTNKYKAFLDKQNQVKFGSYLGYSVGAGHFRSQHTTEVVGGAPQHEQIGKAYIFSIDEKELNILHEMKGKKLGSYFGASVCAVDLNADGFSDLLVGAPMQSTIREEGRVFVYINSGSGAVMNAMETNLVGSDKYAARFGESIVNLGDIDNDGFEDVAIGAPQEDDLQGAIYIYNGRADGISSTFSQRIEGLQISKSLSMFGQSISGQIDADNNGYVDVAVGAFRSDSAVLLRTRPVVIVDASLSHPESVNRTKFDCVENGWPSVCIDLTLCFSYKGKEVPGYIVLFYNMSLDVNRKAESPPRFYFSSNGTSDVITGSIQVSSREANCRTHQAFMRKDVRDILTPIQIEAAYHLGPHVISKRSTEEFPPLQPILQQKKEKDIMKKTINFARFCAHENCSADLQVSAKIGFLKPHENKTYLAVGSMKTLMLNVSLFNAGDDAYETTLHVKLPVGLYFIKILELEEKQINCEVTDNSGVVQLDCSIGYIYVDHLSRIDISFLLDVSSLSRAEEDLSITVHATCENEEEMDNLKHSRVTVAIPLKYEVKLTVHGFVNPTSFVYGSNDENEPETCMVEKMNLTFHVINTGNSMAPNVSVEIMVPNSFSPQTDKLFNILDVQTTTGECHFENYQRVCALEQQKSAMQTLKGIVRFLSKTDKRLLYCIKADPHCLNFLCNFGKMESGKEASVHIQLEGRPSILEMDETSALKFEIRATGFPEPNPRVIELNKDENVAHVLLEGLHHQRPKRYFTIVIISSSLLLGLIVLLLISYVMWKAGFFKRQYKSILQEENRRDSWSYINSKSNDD
T1 sequence (P05556 21-798): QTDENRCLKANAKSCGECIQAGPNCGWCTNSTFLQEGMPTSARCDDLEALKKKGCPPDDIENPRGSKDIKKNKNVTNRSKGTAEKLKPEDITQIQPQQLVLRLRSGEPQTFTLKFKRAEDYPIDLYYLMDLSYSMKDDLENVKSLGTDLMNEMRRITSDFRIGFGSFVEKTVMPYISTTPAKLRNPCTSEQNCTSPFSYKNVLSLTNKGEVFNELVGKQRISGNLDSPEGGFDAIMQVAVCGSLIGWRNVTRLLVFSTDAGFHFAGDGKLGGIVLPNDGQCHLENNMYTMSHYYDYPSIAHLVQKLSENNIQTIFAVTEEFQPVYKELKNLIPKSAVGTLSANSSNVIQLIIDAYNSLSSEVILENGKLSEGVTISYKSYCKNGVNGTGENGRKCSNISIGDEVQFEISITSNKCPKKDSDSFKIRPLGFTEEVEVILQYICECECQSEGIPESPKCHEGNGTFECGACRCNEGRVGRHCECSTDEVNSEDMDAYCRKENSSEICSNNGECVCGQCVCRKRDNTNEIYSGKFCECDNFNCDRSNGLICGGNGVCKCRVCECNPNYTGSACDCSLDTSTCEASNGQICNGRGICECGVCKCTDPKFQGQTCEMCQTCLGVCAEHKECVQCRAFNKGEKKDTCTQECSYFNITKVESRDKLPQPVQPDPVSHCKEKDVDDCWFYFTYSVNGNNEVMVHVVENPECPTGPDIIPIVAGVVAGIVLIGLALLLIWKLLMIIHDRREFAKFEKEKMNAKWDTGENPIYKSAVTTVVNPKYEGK

With `CC1=NN(c2ccc(C(=O)Nc3ccc4c(c3)C(=O)N(CCC(=O)O)CC(=O)N4C)cc2)C(=O)C1` [BX13], the IC50 is 5860 nM.
Regarding `COc1cccc(C(=O)N(CCC(=O)O)CC(=O)N(CCC(C)C)CC(=O)Nc2ccc(-n3cnc(Cl)c3Cl)cc2)c1` [AX4], the IC50 was 15200 nM.
The figure for `COc1cccc(C(=O)N(CCC(=O)O)CC(=O)N(CCC(C)C)CC(=O)Nc2cccc(C(=O)CC(=O)Nc3nccs3)c2)c1` [AX15] is 2410 nM; for `COc1ccc([C@H](CC(=O)O)NC(=O)C(C)CC(=O)Nc2ccc(NC(=O)Nc3ccccc3)cc2)cc1OC` (stereo partly drawn) [SX53] it is 65 nM.
In the case of `Cc1ccccc1NC(=O)Nc1ccc(CC(=O)Nc2cccc(OCCCCC(=O)O)c2)cc1` [RX4], the IC50 came out at 4460 nM.
The figure for `COc1ccc([C@H](CC(=O)O)NC(=O)C(CC(=O)Nc2ccc(NC(=O)Nc3ncccc3C)cc2)CC(C)C)cc1OC` (stereo partly drawn) [SX46] is 200 nM; for `Cc1ccccc1NC(=O)Nc1ccc(CC(=O)Nc2cccc(S(=O)(=O)NC(C)CC(=O)O)c2)cc1` (stereo not drawn) [RX2] it is 10600 nM; for `Cc1ccccc1NC(=O)Nc1ccc(CC(=O)Nc2ccc3c(c2)CN(CCC(=O)O)C(=O)CN3CCN2CCOCC2)cc1` [BX69] it is 31.5 nM.
To `Cc1ccccc1NC(=O)Nc1ccc(CC(=O)Nc2cc(OCCCC(=O)O)ccc2C(C)C)cc1` [RX10] belongs 2040 nM.
As to `Cc1ccccc1NC(=O)Nc1ccc(CC(=O)Nc2cccc(OCCCC(=O)O)c2)cc1` [RX23], the IC50 came out at 144 nM.
To `Cc1ccccc1NC(=O)Nc1ccc(CC(=O)Nc2ccc3c(c2)C(=O)N(CCCCC(=O)O)CC(=O)N3C)cc1` [BX15] belongs 5130 nM.
The figure for `Cc1ccccc1NC(=O)Nc1ccc(NC(=O)c2ccc3c(c2)NC(CC(=O)O)C(=O)N(C)C3)cc1` (stereo not drawn) [BX36] is 646 nM; for `COc1ccc(CCN2CC(=O)N(CCC(=O)O)Cc3cc(NC(=O)Cc4ccc(NC(=O)Nc5ccccc5C)cc4)ccc32)cc1OC` [BX68] it is 35 nM; for `CSCCCN(CC(=O)Nc1ccccc1)C(=O)CN(CCC(=O)O)C(=O)c1ccccc1` [AX6] it is 13500 nM.
To `Cc1ccccc1NC(=O)Nc1ccc(NC(=O)[C@@H]2CCCN2C(=O)CC(C)CC(=O)O)cc1` (stereo partly drawn) [CX10] belongs 258 nM; to `Cc1ccccc1NC(=O)Nc1ccc(CNC(=O)c2ccc3c(c2)CN(C)C(=O)C(CC(=O)O)N3)cc1` (stereo not drawn) [BX18], 4430 nM; to `CN1C(=O)CN(CCC(=O)O)C(=O)c2cc(NC(=O)Cc3ccc(NC(=O)Nc4ccccc4Cl)cc3)ccc21` [BX34], 723 nM.
For the molecule `COCCN1CC(=O)N(CCC(=O)O)Cc2cc(NC(=O)Cc3ccc(NC(=O)Nc4ccccc4C)cc3)ccc21` [BX61], the IC50 turned out to be 99.3 nM.
The figure for `Cc1ccccc1NC(=O)Nc1ccc(CC(=O)Nc2ccc3c(c2)C(=O)N(CCC(=O)O)CC(=O)N3CCC(=O)O)cc1` [BX39] is 480 nM.
To `COc1ccc([C@H](CC(=O)O)NC(=O)C(O)CC(=O)Nc2ccc(NC(=O)Nc3ccccc3C)cc2)cc1OC` (stereo partly drawn) [SX38] belongs 404 nM; to `Cc1ccccc1NC(=O)Nc1ccc(NC(=O)CN(CCC(C)C)C(=O)CN(CCC(=O)O)C(=O)CN2CCCCC2)cc1` [AX22], 636 nM; to `CN1C(=O)CN(CCC(=O)O)C(=O)c2cc(NC(=O)Cc3ccc(NC(=O)c4ccco4)cc3)ccc21` [BX12], 6100 nM.
The figure for `Cc1ccccc1NC(=O)Nc1ccc(CC(=O)Nc2ccc3c(c2)C(=O)N(CCC(=O)O)CC(=O)N3C)cc1` [BX44] is 257 nM.
For `COc1ccc(C(=O)N(CCC(=O)O)CC(=O)N(CCC(C)C)CC(=O)Nc2ccccc2)cc1` [AX7], the IC50 amounted to 11500 nM.
The figure for `Cc1ccccc1NC(=O)Nc1ccc(CC(=O)Nc2ccc3c(c2)C(=O)N(CC(C)C(=O)O)CC(=O)N3C)cc1` (stereo not drawn) [BX50] is 52.3 nM.
The figure for `COC(=O)CCCOc1cc(NC(=O)Cc2ccc(NC(=O)Nc3ccccc3C)cc2)cc(OCCCC(=O)O)c1` [RX22] is 157 nM.
Regarding `Cc1ccccc1NC(=O)Nc1ccc(CC(=O)N(C)c2ccc3c(c2)C(=O)N(CCC(=O)O)CC(=O)N3C)cc1` [BX23], the IC50 was determined as 3240 nM.
`Cc1ccccc1NC(=O)Nc1ccc(CC(=O)Nc2cc(OCCCC(=O)O)cc(OCCC(C)C)c2)cc1` [RX16]: the IC50 came to 574 nM.
The figure for `COc1cccc(C(=O)N(CCC(=O)O)CC(=O)N(CCC(C)C)CC(=O)Nc2cccc(OCCOc3ccccc3)c2)c1` [AX13] is 3160 nM; for `COc1cccc(C(=O)N(CCC(=O)O)CC(=O)N(CCC(C)C)CC(=O)Nc2ccc(NC(=O)c3cc4ccccc4cn3)cc2)c1` [AX16] it is 2840 nM; for `Cc1c(C(=O)Nc2ccc3c(c2)C(=O)N(CCC(=O)O)CC(=O)N3C)c(=O)n(-c2ccccc2)n1C` [BX6] it is 15400 nM.
To `CCC(C)N1C(=O)CN(CCC(=O)O)C(=O)c2cc(NC(=O)Cc3ccc(NC(=O)Nc4ccccc4C)cc3)ccc21` (stereo not drawn) [BX49] belongs 163 nM.
For `COc1ccc(C(CC(=O)O)NC(=O)C(CC(=O)Nc2ccc(NC(=O)Nc3ccccc3C)cc2)CC(C)C)cc1` (stereo not drawn) [SX13], the IC50 turned out to be 3490 nM.
As for `COc1ccc([C@H](CC(=O)O)NC(=O)C(CC(=O)Nc2ccc(NC(=O)c3ccccc3)cc2)CC(C)C)cc1OC` (stereo partly drawn) [SX3], the IC50 is 165 nM.
For the molecule `COc1cc(NC(=O)Cc2ccc(NC(=O)Nc3ccccc3C)cc2)cc(OCCCC(=O)O)c1` [RX26], the IC50 was found to be 77.7 nM.
As for `COC(=O)C(C(C)C)N1C(=O)CN(CCC(=O)O)C(=O)c2cc(NC(=O)Cc3ccc(NC(=O)Nc4ccccc4C)cc3)ccc21` (stereo not drawn) [BX63], the IC50 came to 75 nM.
To `COc1cccc(C(=O)N(CCC(=O)O)CC(=O)N(CCC(C)C)CC(=O)Nc2ccc3c(c2)C(=O)CCCC3)c1` [AX3] belongs 15300 nM; to `Cc1ccccc1NC(=O)Nc1ccc(NC(=O)CN(CCC(=O)O)C(=O)CN(CCC(=O)O)C(=O)c2ccccc2)cc1` [AX38], 60 nM; to `COc1ccc([C@H](CC(=O)O)NC(=O)C(CC(=O)Nc2ccc(NC(=O)NS(=O)(=O)c3ccccc3C)cc2)CC(C)C)cc1OC` (stereo partly drawn) [SX42], 298 nM.
The figure for `COC(=O)CN1C(=O)CN(CCC(=O)O)C(=O)c2cc(NC(=O)Cc3ccc(NC(=O)Nc4ccccc4C)cc3)ccc21` [BX57] is 113 nM; for `COc1ccc([C@H](CC(=O)O)NC(=O)C(CC(=O)Nc2ccc(C(N)=O)cc2)CC(C)C)cc1OC` (stereo partly drawn) [SX15] it is 3000 nM.
The figure for `CCOc1cc(NC(=O)Cc2ccc(NC(=O)Nc3ccccc3C)cc2)cc(OCCCC(=O)O)c1` [RX27] is 50 nM; for `O=C(O)CCNC(=O)[C@@H]1CCCN(C(=O)Cc2ccc(NC(=O)Nc3ccccc3)cc2)C1` [MX1] it is 872 nM.
Turning to `COc1ccc(C(CC(=O)O)NC(=O)CCC(=O)Nc2ccc(NC(=O)Nc3ccccc3C)cc2)cc1OC` (stereo not drawn) [SX51], the IC50 is 142 nM.
The figure for `COc1ccc([C@H](CC(=O)O)NC(=O)C(CC(=O)Nc2ccc(/C=C/c3ccccc3C)cc2)CC(C)C)cc1OC` (stereo partly drawn) [SX40] is 335 nM; for `Cc1ccccc1NC(=O)Nc1ccc(CC(=O)Nc2ccc3c(c2)C(=O)N(C(C)CC(=O)O)CC(=O)N3C)cc1` (stereo not drawn) [BX67] it is 62.5 nM.
To `Cc1ccccc1NC(=O)Nc1ccc(CC(=O)Nc2ccc3c(c2)C(=O)N(C(CC(=O)O)C(=O)O)CC(=O)N3CCC(=O)O)cc1` (stereo not drawn) [BX62] belongs 95 nM.
To `Cc1ccccc1NC(=O)Nc1ccc(NC(=O)[C@@H]2CSCN2C(=O)CN(CCC(=O)O)C(=O)c2ccccc2)cc1` [AX39] belongs 60 nM; to `Cc1ccccc1NC(=O)Nc1ccc(CC(=O)Nc2cccc(CN(CCC(=O)O)C(=O)c3ccccc3)c2)cc1` [RX18], 350 nM; to `Cc1ccccc1NC(=O)Nc1ccc(CC(=O)Nc2ccc3c(c2)C(=O)N(CCC(=O)O)CC(=O)N3Cc2ccc(F)cc2)cc1` [BX48], 166 nM.
Take `CC(=O)N(CCCC(=O)O)Cc1cccc(NC(=O)Cc2ccc(NC(=O)Nc3ccccc3C)cc2)c1` [RX20]: the IC50 amounted to 250 nM.
